Data reported in ChEMBL document CHEMBL5346950, “Development of Biaryl-Containing Aldo-Keto Reductase 1C3 (AKR1C3) Inhibitors for Reversing AKR1C3-Mediated Drug Resistance in Cancer Treatment” (J Med Chem, 2023).

Assays:
[1] = target: T1, Aldo-keto reductase family 1 member C4 (Homo sapiens, UniProt P17516); experiment: Inhibition of human recombinant AKR1C4 transfected in Escherichia coli BL21 (DE3) pLysS competent cells using S-tetralol as substrate assessed as inhibition of NADP+ dependent substrate oxidation incubated for 10 mins by fluorescence microplate reader assay
T1 sequence (P17516 whole entry): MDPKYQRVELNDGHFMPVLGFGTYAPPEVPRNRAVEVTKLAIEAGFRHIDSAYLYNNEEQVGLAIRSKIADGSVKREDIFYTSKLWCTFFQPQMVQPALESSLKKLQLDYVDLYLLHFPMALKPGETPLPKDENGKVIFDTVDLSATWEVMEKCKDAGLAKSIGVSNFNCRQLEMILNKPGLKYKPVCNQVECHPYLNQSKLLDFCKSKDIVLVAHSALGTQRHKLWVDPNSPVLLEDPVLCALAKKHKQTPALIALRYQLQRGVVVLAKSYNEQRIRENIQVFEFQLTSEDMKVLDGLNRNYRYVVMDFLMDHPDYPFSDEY

[2] = Cmax in Sprague-Dawley rat at 2 mg/kg, iv measured for 5760 mins by LC-MS/MS analysis; assay type: ADME, organism-based; design: dose 2 mg/kg, time 5760 min, route iv; conditions: in vivo
[3] = Clearance in Sprague-Dawley rat at 2 mg/kg, iv measured for 5760 mins by LC-MS/MS analysis; assay type: ADME, organism-based; conditions: in vivo
[4] = MRT (0 to infinity) in Sprague-Dawley rat at 2 mg/kg, iv measured for 5760 mins by LC-MS/MS analysis; assay type: ADME, organism-based; conditions: in vivo
[5] = Tmax in Sprague-Dawley rat at 10 mg/kg, IG measured for 5760 mins by LC-MS/MS analysis; assay type: ADME, organism-based; conditions: in vivo, po
[6] = AUC (0 to t) in Sprague-Dawley rat at 10 mg/kg, IG measured for 5760 mins by LC-MS/MS analysis; assay type: ADME, organism-based; design: time 5760 min, dose 10 mg/kg, route ig; conditions: in vivo, po
[7] = Metabolic stability in liver microsomes (unknown origin) assessed as half life; assay type: ADME, Microsome
MCF7 [8] = experiment: Synergistic antitumor activity against human MCF7 cells expressing AKR1C3 xenografted in BALB/c nude mouse assessed as tumor growth inhibition at 10 mg/kg, po administered every 2 days for 3 weeks in presence of doxorubicin and measured every 3 days by caliper analysis relative to control; assay type: functional
[9] = Toxicity in BALB/c nude mouse xenografted with human MCF7 cells expressing AKR1C3 assessed as reduction in body weight at 10 mg/kg, po administered every 2 days for 3 weeks and measured every 3 days; assay type: organism-based; conditions: in vivo, 504 h
[10] = Toxicity in BALB/c nude mouse xenografted with human MCF7 cells expressing AKR1C3 assessed as reduction in body weight at 10 mg/kg, po administered every 2 days for 3 weeks in presence of doxorubicin and measured every 3 days; assay type: organism-based; conditions: in vivo, 504 h
[11] = Toxicity in BALB/c nude mouse xenografted with human MCF7 cells expressing AKR1C3 assessed as histopathological changes in liver at 10 mg/kg, po administered every 2 days for 3 weeks in presence of doxorubicin by H and E staining based analysis; assay type: organism-based; conditions: in vivo, 504 h
[12] = Toxicity in BALB/c nude mouse xenografted with human MCF7 cells expressing AKR1C3 assessed as histopathological changes in spleen at 10 mg/kg, po administered every 2 days for 3 weeks in presence of doxorubicin by H and E staining based analysis; assay type: organism-based; conditions: in vivo, 504 h
[13] = Toxicity in BALB/c nude mouse xenografted with human MCF7 cells expressing AKR1C3 assessed as histopathological changes in heart at 10 mg/kg, po administered every 2 days for 3 weeks in presence of doxorubicin by H and E staining based analysis; assay type: organism-based; conditions: in vivo, 504 h
[14] = Toxicity in BALB/c nude mouse xenografted with human MCF7 cells expressing AKR1C3 assessed as histopathological changes in lungs at 10 mg/kg, po administered every 2 days for 3 weeks by H and E staining based analysis; assay type: organism-based; conditions: in vivo, 504 h
[15] = Toxicity in BALB/c nude mouse xenografted with human MCF7 cells expressing AKR1C3 assessed as histopathological changes in spleen at 10 mg/kg, po administered every 2 days for 3 weeks by H and E staining based analysis; assay type: organism-based; conditions: in vivo, 504 h
MCF7 [16] = experiment: Antiproliferative activity against human MCF7 cells overexpressing AKR1C3 assessed as cell survival rate at 50 uM incubated for 72 hrs by MTT assay relative to control; assay type: functional
MCF7 [17] = experiment: Synergistic antiproliferative activity against human MCF7 cells overexpressing AKR1C3 assessed as combination index at 25 uM incubated for 72 hrs in presence of doxorubicin at 100 nM by Chou-Talalay method; assay type: functional
MCF7 [18] = experiment: Synergistic antiproliferative activity against human MCF7 cells overexpressing AKR1C3 assessed as combination index at 50 uM incubated for 72 hrs in presence of doxorubicin at 20 nM by Chou-Talalay method; assay type: functional
MCF7 [19] = experiment: Synergistic antiproliferative activity against human MCF7 cells overexpressing AKR1C3 assessed as combination index at 50 uM incubated for 72 hrs in presence of doxorubicin at 50 nM by Chou-Talalay method; assay type: functional
MCF7 [20] = experiment: Synergistic antiproliferative activity against human MCF7 cells overexpressing AKR1C3 assessed as combination index at 50 uM incubated for 72 hrs in presence of doxorubicin at 100 nM by Chou-Talalay method; assay type: functional
MCF7 [21] = experiment: Synergistic antiproliferative activity against human MCF7 cells overexpressing AKR1C3 assessed as dose reduction index for doxorubicin at 10 uM incubated for 72 hrs in presence of doxorubicin at 20 nM by Chou-Talalay method; assay type: functional
MCF7 [22] = experiment: Synergistic antiproliferative activity against human MCF7 cells overexpressing AKR1C3 assessed as dose reduction index for doxorubicin at 10 uM incubated for 72 hrs in presence of doxorubicin at 100 nM by Chou-Talalay method; assay type: functional
MCF7 [23] = experiment: Synergistic antiproliferative activity against human MCF7 cells overexpressing AKR1C3 assessed as dose reduction index for doxorubicin at 10 uM incubated for 72 hrs in presence of doxorubicin at 200 nM by Chou-Talalay method; assay type: functional
MCF7 [24] = experiment: Synergistic antiproliferative activity against human MCF7 cells overexpressing AKR1C3 assessed as dose reduction index for doxorubicin at 25 uM incubated for 72 hrs in presence of doxorubicin at 50 nM by Chou-Talalay method; assay type: functional
MCF7 [25] = experiment: Synergistic antiproliferative activity against human MCF7 cells overexpressing AKR1C3 assessed as dose reduction index for doxorubicin at 25 uM incubated for 72 hrs in presence of doxorubicin at 200 nM by Chou-Talalay method; assay type: functional
MCF7 [26] = experiment: Synergistic antiproliferative activity against human MCF7 cells overexpressing AKR1C3 assessed as dose reduction index for doxorubicin at 50 uM incubated for 72 hrs in presence of doxorubicin at 50 nM by Chou-Talalay method; assay type: functional
MCF7 [27] = experiment: Synergistic antiproliferative activity against human MCF7 cells overexpressing AKR1C3 assessed as dose reduction index for doxorubicin at 50 uM incubated for 72 hrs in presence of doxorubicin at 100 nM by Chou-Talalay method; assay type: functional
MCF7 [28] = experiment: Synergistic antiproliferative activity against human MCF7 cells overexpressing AKR1C3 assessed as dose reduction index for doxorubicin at 50 uM incubated for 72 hrs in presence of doxorubicin at 200 nM by Chou-Talalay method; assay type: functional
MCF7 [29] = experiment: Restoration of doxorubicin sensitivity in human MCF7 cells assessed as inhibition of colony formation at 25 uM incubated for 12 days in presence of doxorubicin at 50 nM by crystal violet staining based assay relative to control; assay type: functional; conditions: time 12 day
[30] = Octanol-water partition coefficient, logP of the compound; assay type: physicochemical

`O=C(O)C1(c2ccc(-c3cc(Cl)cc(Cl)c3)c(F)c2)CC1` gave an IC50 [1] greater than 10 µM, a Cmax [2] of 24500 ng/mL and a clearance [3] of 52.3 mL/min/kg. It also gave an MRT inf [4] of 51.1 h, a Tmax [5] of 10 h and an AUC(0-t) at 96 h [6] of 1480 ng·h/mL. The half-life [7] was 6.94 h, the TGI (MCF7 [8]) was 87.46% and the Activity [9] was “Non-Toxic”. For the same compound, the Activity [10] was “Non-Toxic”, the Activity [11] was “Non-Toxic” and the Activity [12] was “Non-Toxic”. For the same compound, the Activity [13] was “Non-Toxic”, the Activity [14] was “Non-Toxic” and the Activity [15] was “Non-Toxic”. For the same compound, the Survival (MCF7 [16]) was greater than 80%, the CI (MCF7 [17]) was 0.351 and the CI (MCF7 [18]) was 0.246. For the same compound, the CI (MCF7 [19]) was 0.239, the CI (MCF7 [20]) was 0.214 and the Activity_index (MCF7 [21]) was 8.47. The Activity_index (MCF7 [22]) was 4.423, the Activity_index (MCF7 [23]) was 3.821 and the Activity_index (MCF7 [24]) was 22.177. It also gave an Activity_index (MCF7 [25]) of 5.636, an Activity_index (MCF7 [26]) of 22.152 and an Activity_index (MCF7 [27]) of 15.324. For the same compound, the Activity_index (MCF7 [28]) was 13.929, the “inhibition (INH)” value (MCF7 [29]) was 100% and the logP [30] was 1.
